Results published in patent US7008905B2, “Method of combating undesired plant growth on cereals” (BASF Aktiengesellschaft, priority 2000, dated 2006).

Tests used:
Format in all cases: in vivo
[1] = test system: Triticum aestivum variety “Kanzler”; assay: Pre-emergence test, selectivity; details: 3 weeks after treatment, rating 0-100 (100=death), Table 4
Description: (§1) The pre-emergence tests involve spraying a liquid formulation of the compound onto the soil in which the seeds of the plant species mentioned above has recently been sown.
(§2) The soil used in the tests is a prepared horticultural loam. The formulations used in the tests are prepared from solutions of the test compounds in acetone containing 0.4% by weight of an alkylphenol/ethylene oxide condensate available under the trade mark TRITON X-155.
(§3) These acetone solutions are diluted with water and the resulting formulations applied at dosage levels corresponding to 15 g, 30 g, 60 g, 120 g or 240 g of active material per hectare in a volume equivalent to 900 liters per hectare. In these tests untreated sown soil is used as control. The herbicidal effects of the test compounds are assessed visually three weeks after spraying the soil and are recorded an a 0 to 100 scale. A rating 0 indicates growth as untreated control, a rating 100 indicates death. An increase of 10 unit an the linear scale approximates to a 10% increase in the level of effect. The results of the assessment are set out in Tables 1 to 4.

[2] = test system: Triticum aestivum variety “Monopol”; assay: Pre-emergence test, selectivity; details: 3 weeks after treatment, rating 0-100 (100=death), Table 4
Description: as §1, §2, §3

Veronica persica = assay: Pre-emergence test, weed control; details: 3 weeks after treatment, rating 0-100 (100=death), Table 3
Description: as §1, §2
(§4) In these tests untreated sown soil is used as control. The herbicidal effects of the test compounds are assessed visually three weeks after spraying the soil and are recorded an a 0 to 100 scale. A rating 0 indicates growth as untreated control, a rating 100 indicates death. An increase of 10 unit an the linear scale approximates to a 10% increase in the level of effect. The results of the assessment are set out in Tables 1 to 4.

Apera spica-venti = assay: Pre-emergence test, weed control; details: 3 weeks after treatment, rating 0-100 (100=death), Table 3
Description: as §1, §2, §4

Lolium perenne = assay: Pre-emergence test, weed control; details: 3 weeks after treatment, rating 0-100 (100=death), Table 3
Description: as §1, §2, §4

Lamium purpureum = assay: Pre-emergence test, weed control; details: 3 weeks after treatment, rating 0-100 (100=death), Table 3
Description: as §1, §2, §4

Poa annua = assay: Pre-emergence test, weed control; details: 3 weeks after treatment, rating 0-100 (100=death), Table 3
Description: as §1, §2, §4

Matricaria inodora = assay: Pre-emergence test, weed control; details: 3 weeks after treatment, rating 0-100 (100=death), Table 3
Description: as §1, §2, §4

Setaria viridis = assay: Pre-emergence test, weed control; details: 3 weeks after treatment, rating 0-100 (100=death), Table 3
Description: as §1, §2, §4

Galium aparine = assay: Pre-emergence test, weed control; details: 3 weeks after treatment, rating 0-100 (100=death), Table 3
Description: as §1, §2, §4

Alopecurus myosuroides = assay: Pre-emergence test, weed control; details: 3 weeks after treatment, rating 0-100 (100=death), Table 3
Description: as §1, §2, §4

Stellaria media = assay: Pre-emergence test, weed control; details: 3 weeks after treatment, rating 0-100 (100=death), Table 3
Description: as §1, §2, §4

VIOAR = assay: Pre-emergence test, weed control; details: 3 weeks after treatment, rating 0-100 (100=death), Table 3
Description: as §1, §2, §3

PAPRH = assay: Pre-emergence test, weed control; details: 3 weeks after treatment, rating 0-100 (100=death), Table 3
Description: as §1, §2, §3

wheat = assay: Pre-emergence test, tolerance in wheat; details: in vivo
Description: as §1, §2, §3

Which results are given for `COc1cnc(-c2ccc(C(F)(F)F)cc2)nc1Oc1ccnc(Cl)c1` [REF-8]?
TRZAWK rating (Selectivity) ([1]; 0.030 kg/ha): 1; TRZAWK rating (Selectivity) ([1]; 0.060 kg/ha): 5; TRZAWK rating (Selectivity) ([1]; 0.120 kg/ha): 12; TRZAWK rating (Selectivity) ([1]; 0.240 kg/ha): 18; TRZAWM rating (Selectivity) ([2]; 0.030 kg/ha): 1; TRZAWM rating (Selectivity) ([2]; 0.060 kg/ha): 3; TRZAWM rating (Selectivity) ([2]; 0.120 kg/ha): 15; TRZAWM rating (Selectivity) ([2]; 0.240 kg/ha): 18; VERPE weed control rating (Veronica persica; 0.030 kg/ha): 100; VERPE weed control rating (Veronica persica; 0.060 kg/ha): 100; VERPE weed control rating (Veronica persica; 0.120 kg/ha): 100; VERPE weed control rating (Veronica persica; 0.240 kg/ha): 100; APESV weed control rating (Apera spica-venti; 0.030 kg/ha): 100; APESV weed control rating (Apera spica-venti; 0.060 kg/ha): 100; APESV weed control rating (Apera spica-venti; 0.120 kg/ha): 100; APESV weed control rating (Apera spica-venti; 0.240 kg/ha): 100; LOLPE weed control rating (Lolium perenne; 0.030 kg/ha): 60; LOLPE weed control rating (Lolium perenne; 0.060 kg/ha): 97; LOLPE weed control rating (Lolium perenne; 0.120 kg/ha): 99; LOLPE weed control rating (Lolium perenne; 0.240 kg/ha): 99; LAMPU weed control rating (Lamium purpureum; 0.030 kg/ha): 98; LAMPU weed control rating (Lamium purpureum; 0.060 kg/ha): 100; LAMPU weed control rating (Lamium purpureum; 0.120 kg/ha): 100; LAMPU weed control rating (Lamium purpureum; 0.240 kg/ha): 100; POAAN weed control rating (Poa annua; 0.030 kg/ha): 100; POAAN weed control rating (Poa annua; 0.060 kg/ha): 100; POAAN weed control rating (Poa annua; 0.120 kg/ha): 100; POAAN weed control rating (Poa annua; 0.240 kg/ha): 100; MATIN weed control rating (Matricaria inodora; 0.030 kg/ha): 95; MATIN weed control rating (Matricaria inodora; 0.060 kg/ha): 100; MATIN weed control rating (Matricaria inodora; 0.120 kg/ha): 100; MATIN weed control rating (Matricaria inodora; 0.240 kg/ha): 100; SETVI weed control rating (Setaria viridis; 0.030 kg/ha): 60; SETVI weed control rating (Setaria viridis; 0.060 kg/ha): 90; SETVI weed control rating (Setaria viridis; 0.120 kg/ha): 90; SETVI weed control rating (Setaria viridis; 0.240 kg/ha): 100; GALAP weed control rating (Galium aparine; 0.030 kg/ha): 3; GALAP weed control rating (Galium aparine; 0.120 kg/ha): 70; GALAP weed control rating (Galium aparine; 0.240 kg/ha): 70; ALOMY weed control rating (Alopecurus myosuroides; 0.030 kg/ha): 15; ALOMY weed control rating (Alopecurus myosuroides; 0.060 kg/ha): 35; ALOMY weed control rating (Alopecurus myosuroides; 0.120 kg/ha): 70; ALOMY weed control rating (Alopecurus myosuroides; 0.240 kg/ha): 90; STEME weed control rating (Stellaria media; 0.030 kg/ha): 35; STEME weed control rating (Stellaria media; 0.060 kg/ha): 85; STEME weed control rating (Stellaria media; 0.120 kg/ha): 100; STEME weed control rating (Stellaria media; 0.240 kg/ha): 100; VIOAR weed control rating (VIOAR; 0.030 kg/ha): 99; VIOAR weed control rating (VIOAR; 0.060 kg/ha): 99; VIOAR weed control rating (VIOAR; 0.120 kg/ha): 100; VIOAR weed control rating (VIOAR; 0.240 kg/ha): 100; PAPRH weed control rating (PAPRH; 0.030 kg/ha): 100; PAPRH weed control rating (PAPRH; 0.060 kg/ha): 100; PAPRH weed control rating (PAPRH; 0.120 kg/ha): 100; PAPRH weed control rating (PAPRH; 0.240 kg/ha): 100; maximum tolerated dose in wheat / dose at which sufficiently selective in wheat (wheat): 120 g/ha

How did the “TRZAWK rating (Selectivity)” value ([1]; 0.120 kg/ha) turn out when `Cc1nc(-c2ccc(C(F)(F)F)cc2)nc(Oc2ccnc(Cl)c2)c1C` [REF-5] was run?
The value was 1.

And the “TRZAWK rating (Selectivity)” value ([1]; 0.240 kg/ha)?
Its value is 8.

And the “TRZAWM rating (Selectivity)” value ([2]; 0.120 kg/ha)?
Its value is 1.

And the “TRZAWM rating (Selectivity)” value ([2]; 0.240 kg/ha)?
The value was 8.

And the “VERPE weed control rating” value (Veronica persica; 0.030 kg/ha)?
Its value is 55.

What about the “VERPE weed control rating” value (Veronica persica; 0.060 kg/ha) of the same compound?
The value was 93.

And the “VERPE weed control rating” value (Veronica persica; 0.120 kg/ha)?
The value was 95.

And the “VERPE weed control rating” value (Veronica persica; 0.240 kg/ha)?
The value was 100.

What about the “APESV weed control rating” value (Apera spica-venti; 0.030 kg/ha) of the same compound?
Its value is 100.

And the “APESV weed control rating” value (Apera spica-venti; 0.060 kg/ha)?
The value was 100.

What about the “APESV weed control rating” value (Apera spica-venti; 0.120 kg/ha) of the same compound?
Its value is 100.

What about the “APESV weed control rating” value (Apera spica-venti; 0.240 kg/ha) of the same compound?
Its value is 100.

And the “LOLPE weed control rating” value (Lolium perenne; 0.030 kg/ha)?
Its value is 40.

What about the “LOLPE weed control rating” value (Lolium perenne; 0.060 kg/ha) of the same compound?
Its value is 90.

What about the “LOLPE weed control rating” value (Lolium perenne; 0.120 kg/ha) of the same compound?
The value was 98.

And the “LOLPE weed control rating” value (Lolium perenne; 0.240 kg/ha)?
The value was 99.

What about the “LAMPU weed control rating” value (Lamium purpureum; 0.030 kg/ha) of the same compound?
Its value is 0.

What about the “LAMPU weed control rating” value (Lamium purpureum; 0.060 kg/ha) of the same compound?
The value was 20.

And the “LAMPU weed control rating” value (Lamium purpureum; 0.120 kg/ha)?
Its value is 55.

And the “LAMPU weed control rating” value (Lamium purpureum; 0.240 kg/ha)?
The value was 100.

What about the “POAAN weed control rating” value (Poa annua; 0.030 kg/ha) of the same compound?
The value was 92.

What about the “POAAN weed control rating” value (Poa annua; 0.060 kg/ha) of the same compound?
Its value is 100.

And the “POAAN weed control rating” value (Poa annua; 0.120 kg/ha)?
Its value is 100.

And the “POAAN weed control rating” value (Poa annua; 0.240 kg/ha)?
The value was 100.

And the “MATIN weed control rating” value (Matricaria inodora; 0.030 kg/ha)?
Its value is 85.

What about the “MATIN weed control rating” value (Matricaria inodora; 0.060 kg/ha) of the same compound?
The value was 100.

And the “MATIN weed control rating” value (Matricaria inodora; 0.120 kg/ha)?
Its value is 100.

What about the “MATIN weed control rating” value (Matricaria inodora; 0.240 kg/ha) of the same compound?
The value was 100.

What about the “SETVI weed control rating” value (Setaria viridis; 0.030 kg/ha) of the same compound?
The value was 20.

What about the “SETVI weed control rating” value (Setaria viridis; 0.060 kg/ha) of the same compound?
The value was 50.

What about the “SETVI weed control rating” value (Setaria viridis; 0.120 kg/ha) of the same compound?
The value was 95.

And the “SETVI weed control rating” value (Setaria viridis; 0.240 kg/ha)?
Its value is 100.

And the “GALAP weed control rating” value (Galium aparine; 0.030 kg/ha)?
Its value is 2.

What about the “GALAP weed control rating” value (Galium aparine; 0.060 kg/ha) of the same compound?
The value was 5.

And the “GALAP weed control rating” value (Galium aparine; 0.120 kg/ha)?
The value was 50.

What about the “ALOMY weed control rating” value (Alopecurus myosuroides; 0.030 kg/ha) of the same compound?
Its value is 5.

And the “ALOMY weed control rating” value (Alopecurus myosuroides; 0.060 kg/ha)?
The value was 15.

What about the “ALOMY weed control rating” value (Alopecurus myosuroides; 0.120 kg/ha) of the same compound?
Its value is 30.

And the “ALOMY weed control rating” value (Alopecurus myosuroides; 0.240 kg/ha)?
Its value is 35.

And the “STEME weed control rating” value (Stellaria media; 0.030 kg/ha)?
The value was 10.

And the “STEME weed control rating” value (Stellaria media; 0.060 kg/ha)?
The value was 25.

And the “STEME weed control rating” value (Stellaria media; 0.120 kg/ha)?
Its value is 35.

What about the “STEME weed control rating” value (Stellaria media; 0.240 kg/ha) of the same compound?
The value was 70.

And the “VIOAR weed control rating” value (VIOAR; 0.030 kg/ha)?
Its value is 96.

And the “VIOAR weed control rating” value (VIOAR; 0.060 kg/ha)?
The value was 97.

And the “VIOAR weed control rating” value (VIOAR; 0.120 kg/ha)?
The value was 98.

What about the “VIOAR weed control rating” value (VIOAR; 0.240 kg/ha) of the same compound?
Its value is 99.

What about the “PAPRH weed control rating” value (PAPRH; 0.030 kg/ha) of the same compound?
Its value is 85.

What about the “PAPRH weed control rating” value (PAPRH; 0.060 kg/ha) of the same compound?
Its value is 95.

What about the “PAPRH weed control rating” value (PAPRH; 0.120 kg/ha) of the same compound?
Its value is 100.

And the “PAPRH weed control rating” value (PAPRH; 0.240 kg/ha)?
Its value is 100.

And the “maximum tolerated dose in wheat / dose at which sufficiently selective in wheat” value (wheat)?
Its value is 240 g/ha.
